Here are results for seven compounds from patent US9815794B2, “Inhibition of bacterial biofilms and microbial growth with imidazole derivatives” (North Carolina State University, priority 2011, dated 2017).

Assay [1] concerns Vibrio cholerae. The assay can be described thus: Marine bacteria microdilution MIC. Type of assay: cell-based. The following applies: Vibrio cholerae, V. cholerae. (In general: Broth dilution looks for growth in wells or tubes with falling amounts of substance.)
For assay [2], the system named is Vibrio vulnificus. The experiment in a line: Marine bacteria microdilution MIC. The following applies: Vibrio vulnificus, V. vulnificus.
Assay [3] has as its system VRE. The experiment in a line: Broth microdilution MIC. To be noted: Enterococcus. The assay is classed as cell-based, vancomycin resistant Enterococcus faecium. How it is done:
(§1) Once it was determined that this specific 4,5-disubstitution pattern imparted microbicidal activity onto the 2-AI framework, this activity was quantified by measuring the MIC of each derivative against a variety of representative pathogenic bacterial strains using the microdilution protocol (CSLI, Performance Standards for Antimicrobial Suceptibility Testing; Nineteenth Informational Supplement, Clinical and Laboratory Standards Institute, Wayne, Pa., 2009). E. coli, MDRAB, P. aeruginosa, MRSA, MSSA, S. epidermidis and VRE were used for initial evaluation. From this screen, compound 15 was determined to be the lead compound and had MIC values (μg/mL) of 2, 2, 1, 0.5, 0.25, and 1 against E. coli, MDRAB, MRSA, VRE, S. Epidermidis and MSSA.
(§2) S. aureus (ATCC #29213), S. epidermidis (ATCC #29886), MRSA (ATCC # BAA-44), MDRAB (ATCC # BAA-1605), vancomycin resistant Enterococcus faecium (VRE) (ATCC #51559) and E. coli (ATCC #35695) were obtained from the ATCC. Mechanically difibrinated sheep blood (DSB100) was obtained from Hemostat Labs. Mueller-Hinton medium was purchased from Fluka (#70192).
(§3) Broth Microdilution Method for MIC Determination.

The subject of assay [4] is Rhodospirillum salexigens. The experiment in a line: Marine bacteria microdilution MIC. The following applies: Rhodothalassium salexigens, R. salexigens.
The subject of assay [5] is MDRAB. The assay can be described thus: Biofilm formation inhibition, crystal violet reporter assay. The assay is classed as cell-based. As for the experimental part: (§4) The ability of each member of the pilot library to inhibit either E. coli or MDRAB biofilm formation at 100 μM was assessed using a crystal violet reporter assay (O'Toole et al., Mol. Microbiol., 1998, 30: 295-304).
A general note: In a reporter assay the amount or activity of a reporter protein is the signal.

In assay [6] the test system is MRSA. The experiment in a line: Broth microdilution MIC. Type of assay: cell-based, methicillin-resistant S. aureus. The following applies: Staphylococcus aureus. How it is done:
as §1, §2, §3

The test system of assay [7] is E. coli. The experiment in a line: Biofilm formation inhibition, crystal violet reporter assay. To be noted: Escherichia coli, 100 μM. The assay is classed as cell-based. As for the experimental part:
as §4
This is typically indicative of biofilm inhibition via a traditional microbicidal mechanism instead of a mechanism that modulates biofilm formation through non-microbicidal mechanisms. […] At this concentration, a 97% reduction in bacterial growth was observed.

The subject of assay [8] is E. coli. The assay can be described thus: Broth microdilution MIC. To be noted: Escherichia coli. Type of assay: cell-based. How it is done: as §1, §2, §3
The test system of assay [9] is S. epidermidis. The experiment in a line: Broth microdilution MIC. The assay is classed as cell-based. As for the experimental part: as §1, §2, §3
Assay [10] deals with MDRAB. The experiment in a line: Broth microdilution MIC. Type of assay: cell-based. As for the experimental part:
as §1, §2, §3

Assay [11] concerns MSSA. The experiment in a line: Broth microdilution MIC. Type of assay: cell-based, S. aureus. To be noted: Staphylococcus aureus. How it is done: as §1, §2, §3
The test system of assay [12] is Listonella anguillarum. The experiment in a line: Marine bacteria microdilution MIC. To be noted: Vibrio anguillarum, L. anguillarum.
Assay [13] concerns all of the test strains. The experiment in a line: Antibiotic activity (MIC) of control 2-aminoimidazoles against the test strains. Type of assay: cell-based. How it is done:
To examine the necessity of the 4,5-disubstitution pattern for antimicrobial activity of the 2-aminoimidazole scaffold, two monosubstituted 2-aminoimidazole analogues of compound 19 were synthesized and screened alongside the parent 2-aminoimidazole for antibiotic activity (Scheme 2). Heptanoic acid and phenylhexanoic acid were treated with oxalyl chloride with catalytic dimethyl formamide in dichloromethane to produce the respective acid chlorides, which were then reacted with diazomethane and quenched with hydrobromic acid to make the respective alpha-bromo ketones. These alpha-bromo ketones were separately cyclized with boc-guanidine, providing a boc-protected 2-aminoimidazole scaffold that was subsequently deprotected upon treatment with trifluoroacetic acid in dichloromethane to yield 22 and 23.
as §3

[14] abbreviates: Staphylococcus epidermidis, read-out: MIC.

≈ marks a conversion by molar mass, not a printed value. Read-outs that look alike come from different tables or passages of the source.

On to `Cc1[nH]c(N)nc1CCCCCc1ccccc1` [Compound 11, 5-methyl-4-(5-phenylpentyl)-1H-imidazol-2-amine], for which the MIC in assay [1] was found to be 27.9 µg/mL (≈ 115 µM); in assay [2], 13.9 µg/mL (≈ 57.1 µM); in assay [3] it was 8 µg/mL (≈ 32.9 µM); in assay [4], 7 µg/mL (≈ 28.8 µM); in assay [6] it was 4 µg/mL (≈ 16.4 µM); in [8], 8 µg/mL (≈ 32.9 µM). Moreover, the MIC in assay [9] (setting [14]) was 1 µg/mL (≈ 4.11 µM); in assay [10], 8 µg/mL (≈ 32.9 µM); in assay [11] it was 2 µg/mL (≈ 8.22 µM); in assay [12], 13.9 µg/mL (≈ 57.1 µM). For the same compound, the results for the inhibition at 100 µM in [5] and in assay [7] were above 99% and 96.3 ± 0.08%, respectively.

For the compound `CCc1[nH]c(N)nc1CCCCCc1ccccc1` [Compound 12, 5-ethyl-4-(5-phenylpentyl)-1H-imidazol-2-amine], the MIC is 29.4 µg/mL (≈ 114 µM) in assay [1]; 29.4 µg/mL (≈ 114 µM) in [2]; 8 µg/mL (≈ 31.1 µM) in assay [3]; 14.7 µg/mL (≈ 57.1 µM) in assay [4]; 8 µg/mL (≈ 31.1 µM) in assay [6]; 16 µg/mL (≈ 62.2 µM) in assay [8]. Also, the MIC amounted to 2 µg/mL (≈ 7.77 µM) in [9] (setting [14]), 32 µg/mL (≈ 124 µM) in [10], 4 µg/mL (≈ 15.5 µM) in [11] and 14.7 µg/mL (≈ 57.1 µM) in assay [12]. Also, the inhibition at 100 µM in [5] is 94.5 ± 0.2%; in [7], above 99%.

As for `CCCc1[nH]c(N)nc1CCCCCc1ccccc1` [Compound 13, 4-(5-phenylpentyl)-5-propyl-1H-imidazol-2-amine], the MIC in assay [1] is 15.4 µg/mL (≈ 56.7 µM); in assay [2], 3.85 µg/mL (≈ 14.2 µM); in assay [3] it was 4 µg/mL (≈ 14.7 µM); in assay [4], 3.85 µg/mL (≈ 14.2 µM); in [6], 4 µg/mL (≈ 14.7 µM); in [8], 8 µg/mL (≈ 29.5 µM). For the same compound, the MIC in [9] (setting [14]) amounted to 0.5 µg/mL (≈ 1.84 µM); in assay [10] it was 8 µg/mL (≈ 29.5 µM); in assay [11], 4 µg/mL (≈ 14.7 µM); in [12], 7.7 µg/mL (≈ 28.4 µM). Besides, the inhibition at 100 µM in assay [5] stood at 87.8 ± 0.3%; in [7], 95.8 ± 1.5%.

Take `CCCCc1[nH]c(N)nc1CCCCCc1ccccc1` [Compound 14, 5-butyl-4-(5-phenylpentyl)-1H-imidazol-2-amine]: the MIC in assay [1] was 8.05 µg/mL (≈ 28.2 µM); in assay [2], 4.02 µg/mL (≈ 14.1 µM); in [3], 2 µg/mL (≈ 7.01 µM); in assay [4] it was 8.05 µg/mL (≈ 28.2 µM); in assay [6], 2 µg/mL (≈ 7.01 µM); in [8], 4 µg/mL (≈ 14 µM). The MIC in assay [9] (setting [14]) worked out at 0.25 µg/mL (≈ 0.876 µM); in assay [10], 4 µg/mL (≈ 14 µM); in assay [11] it was 2 µg/mL (≈ 7.01 µM); in assay [12], 4.02 µg/mL (≈ 14.1 µM). Besides, the inhibition at 100 µM amounted to 85.4 ± 0.7% in [5] and 96.9 ± 1.1% in [7].

With `Nc1ncc[nH]1` [Compound 21, 2-aminoimidazole, reference compound], the antibiotic activity entry in [13] (highest concentration tested (36 μg/mL), every bacterial strain) is “no antibiotic activity”.

For `CCCCCCc1c[nH]c(N)n1.Cl` [Compound 22, 4-hexyl-1H-imidazol-2-amine hydrochloride], the MIC in assay [13] (Staphylococcus epidermidis, all of the test strains except for S. epidermidis) was above 41 µg/mL; in assay [9] (setting [14]), 0.04 µg/mL.

As to `Cl.Nc1nc(CCCCCc2ccccc2)c[nH]1` [Compound 23], in [13] (any of the test strains except for S. epidermidis), the antibiotic activity entry is given as “no notable antibiotic activity”. The MIC in assay [9] came out at 0.05 µg/mL.

What is called MIC is the lowest concentration found to suppress growth. By inhibition is commonly meant how much of the control response was suppressed. Low readings indicate a response near the control, high ones a response far below the control.
